According to ChEMBL document CHEMBL1201862, “PubChem BioAssay data set” (2004):
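Exposure lasted 48 hours, with cells grown in 96-well plates and compounds tested at five concentrations. At the GI50, growth is halved.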 The source made the active and inactive calls. Cut-off read from the data, not from the text of the source: active = GI50 up to about 1.1 µM and inactive = higher.

Columns and labels:
Assay in all cases: NCI-60 cell line screen, 48 h
EKVX = test system: EKVX
MCF7 = test system: MCF7
SN12C = test system: SN12C
HL-60 = test system: HL-60
RPMI-8226 = test system: RPMI-8226
OVCAR-5 = test system: OVCAR-5
SK-MEL-5 = test system: SK-MEL-5
786-0 = test system: 786-0
COLO 205 = test system: COLO 205
KM12 = test system: KM12
BT-549 = test system: BT-549
DU-145 = test system: DU-145
SW-620 = test system: SW-620
CCRF-CEM = test system: CCRF-CEM
NCI-H522 = test system: NCI-H522
TK-10 = test system: TK-10
MDA-N = test system: MDA-N
HOP-92 = test system: HOP-92
CAKI-1 = test system: CAKI-1
SK-OV-3 = test system: SK-OV-3

Row | Structure (SMILES) | GI50 (EKVX) | GI50 (MCF7) | GI50 (SN12C) | GI50 (HL-60) | GI50 (RPMI-8226) | GI50 (OVCAR-5) | GI50 (SK-MEL-5) | GI50 (786-0) | GI50 (COLO 205) | GI50 (KM12) | GI50 (BT-549) | GI50 (DU-145) | GI50 (SW-620) | GI50 (CCRF-CEM) | GI50 (NCI-H522) | GI50 (TK-10) | GI50 (MDA-N) | GI50 (HOP-92) | GI50 (CAKI-1) | GI50 (SK-OV-3)
1 | Cc1cc(S(=O)(=O)Nc2nnc3ccccn23)c(S)cc1Cl | > 100 µM (inactive) | > 100 µM (inactive) | > 100 µM (inactive) | > 100 µM (inactive) | > 100 µM (inactive) | > 100 µM (inactive) | > 100 µM (inactive) | > 100 µM (inactive) | > 100 µM (inactive) | 38.1 µM (inactive) | > 100 µM (inactive) | > 100 µM (inactive) | > 100 µM (inactive) | > 10 µM (inactive) | > 100 µM (inactive) | > 100 µM (inactive) | > 100 µM (inactive) |  |  | 
2 | CC(CO)(CO)Nc1ncnc2ccccc12 | 66.8 µM (inactive) |  | > 100 µM (inactive) |  |  | > 100 µM (inactive) | 50.1 µM (inactive) | > 100 µM (inactive) |  | > 100 µM (inactive) | > 100 µM (inactive) | > 100 µM (inactive) | > 100 µM (inactive) | > 100 µM (inactive) | > 100 µM (inactive) | > 100 µM (inactive) | > 100 µM (inactive) | > 100 µM (inactive) | > 100 µM (inactive) | 
3 | c1ccc2c(c1)ccc1ncccc12 | > 100 µM (inactive) | > 100 µM (inactive) | > 100 µM (inactive) | > 100 µM (inactive) | > 100 µM (inactive) | > 100 µM (inactive) | 75.2 µM (inactive) | > 100 µM (inactive) | > 100 µM (inactive) | > 100 µM (inactive) | 47.1 µM (inactive) | > 100 µM (inactive) | > 100 µM (inactive) |  | > 100 µM (inactive) | > 100 µM (inactive) |  | 44.6 µM (inactive) | 85.9 µM (inactive) | 
4 | Cc1ccc(SC[C@@]2(C(F)F)NC(=O)NC2=O)cc1 | > 100 µM (inactive) |  |  | > 100 µM (inactive) | > 100 µM (inactive) | > 100 µM (inactive) | > 100 µM (inactive) | > 100 µM (inactive) | > 100 µM (inactive) | > 100 µM (inactive) | > 100 µM (inactive) | > 100 µM (inactive) | > 100 µM (inactive) | > 100 µM (inactive) | > 100 µM (inactive) | > 100 µM (inactive) |  | > 100 µM (inactive) | > 100 µM (inactive) | > 100 µM (inactive)
5 | C=C1CC[C@H]2C(=O)OC(c3ccoc3)C[C@]2(C)C/C=C\C=C/1C(=O)OC (some centres undefined) | > 25 µM (inactive) | > 25 µM (inactive) | > 25 µM (inactive) |  |  | > 25 µM (inactive) | > 25 µM (inactive) | > 25 µM (inactive) | > 25 µM (inactive) | > 25 µM (inactive) | > 25 µM (inactive) |  | > 25 µM (inactive) |  |  | > 25 µM (inactive) | > 25 µM (inactive) | > 25 µM (inactive) | > 25 µM (inactive) | > 25 µM (inactive)
6 | COc1ccc2c(c1)CC[C@@H]1[C@@H]2CC[C@]2(C)C(=O)/C(=C/c3cc(OC)c(OC)c(OC)c3)C[C@@H]12 | 61.2 µM (inactive) | 42.5 µM (inactive) |  | > 100 µM (inactive) | > 100 µM (inactive) | 24.4 µM (inactive) | 71.3 µM (inactive) | 19.2 µM (inactive) | 87.1 µM (inactive) | 29 µM (inactive) | 26.3 µM (inactive) | 42.4 µM (inactive) | > 100 µM (inactive) |  |  | 19.4 µM (inactive) |  | 22.2 µM (inactive) | 27.7 µM (inactive) | 44 µM (inactive)
7 | COc1ccc2c(c1)c1c(C)c3cnccc3c(C)c1n2CCCN | 0.307 µM (active) | 0.251 µM (active) | 0.234 µM (active) |  |  | 0.431 µM (active) | 0.383 µM (active) | 0.0288 µM (active) | 0.177 µM (active) |  | 1.29 µM (inactive) | 0.0603 µM (active) | 0.0466 µM (active) |  | 0.313 µM (active) | 0.248 µM (active) | 0.114 µM (active) | 0.0968 µM (active) |  | 0.415 µM (active)
8 | N#Cc1c2ccc([N+](=O)[O-])cc2c(=O)n2c1sc1ccccc12 |  |  | 24.3 µM (inactive) | 19.3 µM (inactive) | 9.93 µM (inactive) |  | 22 µM (inactive) | 24.2 µM (inactive) | 6.87 µM (inactive) | 31.6 µM (inactive) | 19.9 µM (inactive) | 35.5 µM (inactive) | 18.9 µM (inactive) | 7.29 µM (inactive) |  | 16 µM (inactive) | 80.2 µM (inactive) | 13.5 µM (inactive) | 24.4 µM (inactive) | 
9 | O=C1N/C(=N/N=C\c2ccccc2)N/C1=C/c1ccc(Cl)cc1 | 19.4 µM (inactive) | 24.7 µM (inactive) | 23.2 µM (inactive) |  | 20 µM (inactive) | 26.4 µM (inactive) | 19.3 µM (inactive) | 29.8 µM (inactive) | 32.2 µM (inactive) | 27.1 µM (inactive) | 16.5 µM (inactive) | 28.6 µM (inactive) | 30.6 µM (inactive) |  | 18.5 µM (inactive) | 42.3 µM (inactive) | 34.3 µM (inactive) |  | 33.2 µM (inactive) | 20.7 µM (inactive)
10 | CCOC(=O)c1ccc2c(=O)n3c(C(=O)OCC)ccc3c(=O)n12 | > 100 µM (inactive) | > 100 µM (inactive) | > 100 µM (inactive) | > 100 µM (inactive) | > 100 µM (inactive) | > 100 µM (inactive) | > 100 µM (inactive) | > 100 µM (inactive) | > 100 µM (inactive) | > 100 µM (inactive) | > 100 µM (inactive) | > 100 µM (inactive) | > 100 µM (inactive) | > 100 µM (inactive) | 60.7 µM (inactive) | > 100 µM (inactive) | > 100 µM (inactive) |  | > 100 µM (inactive) | 68.2 µM (inactive)
11 | C=CCN(c1cc(OC)c2[nH]c(C(=O)O)c(C)c2c1[N+](=O)[O-])S(C)(=O)=O | > 100 µM (inactive) | > 100 µM (inactive) | 54.3 µM (inactive) | > 100 µM (inactive) | > 100 µM (inactive) | > 100 µM (inactive) | > 100 µM (inactive) | > 100 µM (inactive) | > 100 µM (inactive) | > 100 µM (inactive) | > 100 µM (inactive) | > 100 µM (inactive) | > 100 µM (inactive) | > 100 µM (inactive) | 10 µM (inactive) | > 100 µM (inactive) | > 100 µM (inactive) |  | > 100 µM (inactive) | > 100 µM (inactive)
12 | C[C@@H]1OC(=O)/C(=C\N(C)C)[C@H]2CC(=O)N(CCc3cn(S(=O)(=O)C(F)(F)F)c4ccccc34)C[C@H]12 | > 100 µM (inactive) | > 100 µM (inactive) | > 100 µM (inactive) |  | > 100 µM (inactive) | > 100 µM (inactive) | > 100 µM (inactive) | > 100 µM (inactive) | > 100 µM (inactive) | > 100 µM (inactive) | > 100 µM (inactive) |  | > 100 µM (inactive) |  | > 100 µM (inactive) | > 100 µM (inactive) | > 100 µM (inactive) | > 100 µM (inactive) | > 100 µM (inactive) | > 100 µM (inactive)
13 | O=Cc1ccc(-c2cccc([N+](=O)[O-])c2)s1 | 71.4 µM (inactive) | > 100 µM (inactive) | > 100 µM (inactive) | 64.4 µM (inactive) | 67 µM (inactive) | > 100 µM (inactive) | > 100 µM (inactive) | 80 µM (inactive) | > 100 µM (inactive) | > 100 µM (inactive) | 81.1 µM (inactive) | 61 µM (inactive) | > 100 µM (inactive) | 96.2 µM (inactive) | > 100 µM (inactive) | > 100 µM (inactive) |  | > 100 µM (inactive) | > 100 µM (inactive) | > 100 µM (inactive)
14 | C(/C=N/c1ccccc1)=C(/Nc1ccccc1)c1ccc2ccccc2c1 |  | 3.18 µM (inactive) | 1.6 µM (inactive) | 1.5 µM (inactive) | 1.79 µM (inactive) | 2.51 µM (inactive) | 2.63 µM (inactive) | 2.45 µM (inactive) | 1.85 µM (inactive) | 1.78 µM (inactive) | 1.08 µM (active) | 2.02 µM (inactive) | 3.88 µM (inactive) | 1.1 µM (active) | 3.87 µM (inactive) | 1.45 µM (inactive) |  | 9.62 µM (inactive) | 0.667 µM (active) | 2.76 µM (inactive)
15 | Cc1sc2nc3n(c(=O)c2c1C)N=CN(c1ccc(F)cc1)C3 | > 100 µM (inactive) | > 100 µM (inactive) | 32.9 µM (inactive) |  | > 100 µM (inactive) | > 100 µM (inactive) | > 100 µM (inactive) | 19.5 µM (inactive) | > 100 µM (inactive) | > 100 µM (inactive) | > 100 µM (inactive) | > 100 µM (inactive) | > 100 µM (inactive) | > 100 µM (inactive) | 69.3 µM (inactive) | > 100 µM (inactive) | > 100 µM (inactive) | 24.2 µM (inactive) | > 100 µM (inactive) | 52 µM (inactive)
16 | Cc1ccc(OCC2OC(n3cnc4nc(N)nc(Cl)c43)CC2Oc2ccc(C)cc2)cc1 (centres undefined) | 24.5 µM (inactive) | 15.1 µM (inactive) | 15.8 µM (inactive) |  | 7.98 µM (inactive) | 18.3 µM (inactive) | 19.7 µM (inactive) | 22.1 µM (inactive) | 16.8 µM (inactive) | 21 µM (inactive) | 22.5 µM (inactive) | 18 µM (inactive) | 32.5 µM (inactive) | 45.1 µM (inactive) | 15.7 µM (inactive) | 31.1 µM (inactive) | 11.9 µM (inactive) | 17.3 µM (inactive) | 4.08 µM (inactive) | 33.9 µM (inactive)
